# Test results: patent US7709465B2, “Phosphorous containing compounds including triphenylmethylphosphonate esters for the treatment of melanoma and other cancers” (The Board of Trustees of the University of Illinois, priority 2006, dated 2010)
# Experiments:
# Assay type in all cases: cell-based
# [1] = tested on: B16-F10; assay: High-throughput cell death assay I, B16-F10; details: B16-F10, melanoma (mouse); read-out: diethyl TPMP IC50
# Text: (§1) Compound CX5 was further tested using the same high-throughput cell death assay I for activity in inducing death in multiple cell lines representing a variety of cancer types.
# [2] = tested on: CRL-1782; assay: High-throughput cell death assay I, CRL-1782; details: CRL-1782, melanoma (human); read-out: diethyl TPMP IC50
# Text: as §1
# [3] = tested on: Hs578t; assay: High-throughput cell death assay I, Hs578t; details: Hs-578T, breast (human), read-out: diethyl TPMP IC50
# Text: as §1
# [4] = tested on: HL-60; assay: High-throughput cell death assay I, HL-60; details: HL-60, leukemia (human); read-out: diethyl TPMP IC50
# Text: (§2) According to the American Type Culture Collection (ATCC), U-937 is a human cell line of histiocytic lymphoma tissue with monocyte morphology. See Sundstrom C, Nilsson K, Int. J. Cancer 17: 565-577, 1976. Also according to ATCC, HL-60 is a human cell line of a tissue type described as peripheral blood, promyeloblast, and acute promyelocytic leukemia, with myeloblastic morphology. See Gallagher R, et al., Blood 54: 713-733, 1979.
# as §1
# [5] = tested on: SK-N-SH; assay: High-throughput cell death assay I, SK-N-SH; details: neuroblastoma (human), read-out: diethyl TPMP IC50
# Text: as §1
# [6] = tested on: MDA-MB-231; assay: High-throughput cell death assay I, MDA-MB-231; details: Homo sapiens, read-out: diethyl TPMP IC50
# Text: as §1
# [7] = tested on: K562; assay: High-throughput cell death assay I, K562; details: K562, leukemia (CML, human); read-out: diethyl TPMP IC50
# Text: as §1
# [8] = tested on: U-937; assay: High-throughput cell death assay I, U-937; details: U-937, lymphoma (human); read-out: diethyl TPMP IC50
# Text: as §2, §1
# [9] = tested on: SK-MEL-5; assay: High-throughput cell death assay I, SK-MEL-5; details: SK-MEL-5, melanoma (human); read-out: diethyl TPMP IC50
# Text: as §1
# [10] = tested on: NCI-H226; assay: High-throughput cell death assay I, NCI-H226; details: NCI-H226, lung (human); read-out: diethyl TPMP IC50
# Text: as §1
# [11] = tested on: ACHN; assay: High-throughput cell death assay I, ACHN; details: renal (human), read-out: diethyl TPMP IC50
# Text: as §1
compound,measurement,setting,value
CCOP(=O)(OCC)C(c1ccccc1)(c1ccccc1)c1ccccc1 [CX5],IC50,[1],810 nM
same,IC50,[2],1410 nM
same,IC50,[3],13.2 µM
same,IC50,[4],13.2 µM
same,IC50,[5],1800 nM
same,IC50,[6],1090 nM
same,IC50,[7],3.27 µM
same,IC50,[8],11.6 µM
same,IC50,[9],3.39 µM
same,IC50,[10],6.56 µM
same,IC50,[11],9.69 µM
